Holding throughout (assay type): in vivo, mouse
The test system of experiment [1] is murine LPS ARDS model. The experiment in a line: Histopathological evaluation (lung injury score), murine LPS ARDS model. As for the experimental part: (§1) In the ARDS group, mice received Escherichia coli O111:B4 lipopolysaccharide (50 μg in 0.05 mL saline, i.t.), while, in the control group, the animals received an instillation of saline (0.05 mL, i.t.). For intratracheal instillation, mice were slightly anesthetized with isoflurane.
(§2) The lipid SPPCT-800 was dissolved in water (low dose—2 mg/ml; high dose—20 mg/ml). For the 24-hour study, two treatment approaches were used. Mice received a single dose of SPPCT-800 (200 mg/kg, per gavage) as prevention (30 minutes before the LPS instillation), or as a single dose of either 20 mg/kg or 200 mg/kg as therapy (3-hour after the LPS instillation). For the 72-hour study, mice received a total of 8 treatments of SPPCT-800 (200 mg/kg) starting at 3-hour after the LPS instillation. Disease progression in mice was assessed by the evaluation of pulmonary functions, blood oxygen saturation, and body weight change. On the terminal day of each study (24 hours or 72 hours), measurement of cytokine levels in the plasma and BALF, and histopathology evaluations were done.
Histopathological Evaluation. […] A blinded histologist evaluated the general morphology of alveolar septa, lung structure, and inflammation according to the general scoring described and adopted by Matute-Bello, et al.^25, 26
(§3) Statistical Analysis. Results are expressed as means±SEM. […]

The test system of experiment [2] is murine LPS ARDS model. Put plainly: Respiratory functions by whole-body plethysmograph, murine LPS ARDS model. Particulars: P<0.001. On the procedure: as §1, §2
Respiratory Functions. All mice were introduced to the plethysmograph chamber environment. After the acclimatization period, the functional respiratory parameters were assessed by the whole-body plethysmograph (VivoFlow, SCIREQ, Montreal, Canada) at 0 hour (baseline), at 24-hour post-LPS instillation, and at 48 and 72-hour post-LPS instillation. Each measurement was performed with the mouse placed alone in an unrestrained whole-body plethysmography (WBP) chamber to measure respiratory functions. The WBP trace allowed us to determine specific information regarding the breathing pattern, and to derive important information associated with the development of inflammation. The functional respiratory parameters analyzed included respiratory rate, PenH (pulmonary congestion index), and inspiratory/expiratory time measurements. PenH, was used as an index of edema, inflammation and congestion (broncho-restriction).^24
Statistical Analysis. Results are expressed as means±SEM. Comparisons were made on normally distributed data using ANOVA, followed by a Fisher post hoc test to assess the difference between LPS+vehicle group with GraphPad Prism Software version 8.0 (San Diego, CA, USA). Differences were considered statistically significant when P values were less than 0.05. (* Shown difference versus Sham animals and # shown difference versus LPS+Vehicle group. * Means P<0.05, ** P<0.01, *** P<0.001 while # means P<0.05, ##P<0.01 and ###P<0.001).

The test system of experiment [3] is murine LPS ARDS model. Put plainly: Overall efficacy in the murine LPS ARDS model. On the procedure:
To investigate the role of the lipids of the present invention, such as SPPCT-800, as a treatment for ARDS, the inventors used a murine LPS model to measure histologic changes, lung and body weights, oxygen blood saturations and other pulmonary function parameters, BALF protein and cell counts, and pro-inflammatory cytokine levels in the plasma and BALF.
as §1
as §2, with “On the terminal day of each study (24 hours or 72 hours), measurement of cytokine levels in the plasma and BALF, and histopathology evaluations were done.” left out

Experiment [4] has as its system murine LPS ARDS model. Put plainly: Arterial blood oxygen saturation (SpO2), murine LPS ARDS model. Particulars: 72-hour study; compared to untreated LPS group; did not reach statistical significance. On the procedure: as §1
as §2, with “On the terminal day of each study (24 hours or 72 hours), measurement of cytokine levels in the plasma and BALF, and histopathology evaluations were done.” left out
At 0 hour (baseline), 24-hour post-LPS instillation, and 48 and 72-hour post LPS instillation, arterial blood oxygen saturation (SpO2) was recorded on conscious mice. SpO2 was read off of a pulse oximeter (STARR Life Sciences MouseOx Plus system, Oakmont, PA) with a mouse collar probe installed at the carotid level. The saturation values were measured in percentages (%).
as §3

Consider `CCCCCCCCCCCCCC(=O)OCC(COP(=O)([O-])OCC(COC(=O)CCC)OC(=O)CCC)OC(=O)CCCCCCCCCCCCC.CCCCCCCCCCCCCC(=O)OCC(COP(=O)([O-])OCC(COC(=O)CCC)OC(=O)CCC)OC(=O)CCCCCCCCCCCCC.[Mg+2]` (stereo not drawn) [SPPCT-800], for which, in the experiment with murine LPS ARDS model [1] (at 24 hours, given 30 minutes prior to LPS as a preventative, P<0.01), the lung injury score is on record as 0.3. Moreover, in the experiment on murine LPS ARDS model [1] (at 72 hours, multi-dose treatment group), the lung injury score worked out at 2.2. For the same compound, in the experiment with murine LPS ARDS model [2] (at 24 hours), the inspiratory time entry is recorded as “Significant reductions” and the “pulmonary congestion index (PenH)” value is recorded as “Significant reductions”. Besides, in the experiment with murine LPS ARDS model [2] (at 48 hours), the expiratory time entry is given as “significant reductions” and the “pulmonary congestion index (PenH)” value was “significant reductions”. Further, in the experiment with murine LPS ARDS model [3] (all three studies, best results in the 72-hour study), the “efficacy against ARDS” value is given as “effective”. Moreover, in the experiment with murine LPS ARDS model [3] (single dose of 200 mg/kg, given 30 minutes before LPS challenge), the “severe damage to the lung” value is listed as “significantly reduces”. Moreover, the SpO2 levels result with murine LPS ARDS model [4] is “maintained”.

Source of the values: patent US20240091242A1, “LIPIDS THAT REDUCE LUNG DAMAGE, IMPROVE PULMONARY FUNCTION AND DECREASE PRO-INFLAMMATORY CYTOKINES” (Signpath Pharma, Inc., priority 2021, published 2024).
